Each block holds one molecule with its values, some of them ahead of it. Activity calls are given as the source filed them. No cut-off for these calls is given here.
Tests used:
[1] = Toxicity in BALB/c mouse assessed as change in SOD level in serum at 10 mg/kg, po; assay type: organism-based; conditions: in vivo
[2] = Toxicity in BALB/c mouse assessed as change in AST level in serum at 10 mg/kg, po; assay type: organism-based; conditions: in vivo
[3] = Half life in BALB/c mouse at 10 mg/kg, po measured upto 24 hrs by LC/MS-MS analysis; assay type: ADME, organism-based; conditions: in vivo
[4] = tested on: RAW264.7; assay: Cytotoxicity against mouse RAW264.7 cells assessed as cell viability at 40 uM measured after 24 hrs by MTT assay; assay type: toxicity, cell-based; conditions: raw264.7, 24 h
[5] = AUC (0 to infinity) in BALB/c mouse at 10 mg/kg, po measured upto 24 hrs by LC/MS-MS analysis; assay type: ADME, organism-based; conditions: in vivo
[6] = tested on: RAW264.7; assay: Antiinflammatory activity in LPS-induced mouse RAW264.7 cells assessed as inhibition of IL-6 level at 20 uM incubated for 24 hrs by ELISA method relative to control; assay type: functional
[7] = Tmax in BALB/c mouse at 10 mg/kg, po measured upto 24 hrs by LC/MS-MS analysis; assay type: ADME, organism-based; conditions: in vivo
[8] = Toxicity in BALB/c mouse assessed as change in ALT level in serum at 10 mg/kg, po; assay type: organism-based; conditions: in vivo
[9] = Toxicity in BALB/c mouse assessed as change in BUN level in serum at 10 mg/kg, po; assay type: organism-based; conditions: in vivo
[10] = tested on: RAW264.7; assay: Antiinflammatory activity in LPS-induced mouse RAW264.7 cells assessed as inhibition of TNF-alpha level at 20 uM incubated for 24 hrs by ELISA method relative to control; assay type: functional
[11] = Cmax in BALB/c mouse at 10 mg/kg, po measured upto 24 hrs by LC/MS-MS analysis; assay type: ADME, organism-based; conditions: in vivo
[12] = Toxicity in BALB/c mouse assessed as histopathological lesions in liver at 10 mg/kg, po by H and E staining based analysis; assay type: organism-based; conditions: in vivo
[13] = Toxicity in BALB/c mouse assessed as histopathological lesions in kidney at 10 mg/kg, po by H and E staining based analysis; assay type: organism-based; conditions: in vivo
[14] = Toxicity in BALB/c mouse assessed as change in SCr level in serum at 10 mg/kg, po; assay type: organism-based; conditions: in vivo
[15] = AUC (0 to t) in BALB/c mouse at 10 mg/kg, po measured upto 24 hrs by LC/MS-MS analysis; assay type: ADME, organism-based; conditions: in vivo
[16] = Toxicity in BALB/c mouse assessed as change in MDA level in serum at 10 mg/kg, po; assay type: organism-based; conditions: in vivo
[17] = tested on: Mus musculus; assay: Antiinflammatory activity in LPS-induced BALB/c sepsis mouse model assessed as decrease in serum SOD level at 2.5 to 10 mg/kg, iv administered for 2 hrs and measured after 12 hrs; assay type: functional, organism-based; conditions: dose 2.5-10 mg/kg, time 14.0 hrs
[18] = tested on: Mus musculus; assay: Antiinflammatory activity in LPS-induced BALB/c sepsis mouse model assessed as reduction in TNF-alpha level in serum at 2.5 to 10 mg/kg, iv administered for 2 hrs and measured after 12 hrs by ELISA analysis; assay type: functional, organism-based; conditions: dose 2.5-10 mg/kg, time 14.0 hrs
[19] = Toxicity in BALB/c mouse assessed as pathological damage in heart at 10 mg/kg, po administered for 2 hrs by H and E staining based analysis; assay type: organism-based; conditions: in vivo
[20] = tested on: RAW264.7; assay: Antiinflammatory activity in LPS-induced mouse RAW264.7 cells assessed as reduction in TAK1-TAB1 complex formation incubated for 2 hrs vy immunoprecipitation analysis; assay type: functional, cell-based
[21] = tested on: Mus musculus; assay: Antiinflammatory activity in LPS-induced BALB/c sepsis mouse model assessed as reduction in IL-6 level in serum at 2.5 to 10 mg/kg, iv administered for 2 hrs and measured after 12 hrs by ELISA analysis; assay type: functional, organism-based; conditions: dose 2.5-10 mg/kg, time 14.0 hrs
[22] = Toxicity in BALB/c mouse assessed as animal survival at 500 mg/kg, po administered for 2 hrs; assay type: organism-based; conditions: in vivo
[23] = Toxicity in BALB/c mouse assessed as lung lesions at 2.5 to 10 mg/kg, iv administered for 2 hrs and measured after 12 hrs by H and E staining based assay; assay type: organism-based; conditions: in vivo, 14 h, dose 2.5-10 mg/kg
[24] = tested on: Mus musculus; assay: Antiinflammatory activity in LPS-induced BALB/c sepsis mouse model assessed as decrease in serum MDA level at 2.5 to 10 mg/kg, iv administered for 2 hrs and measured after 12 hrs; assay type: functional, organism-based; conditions: dose 2.5-10 mg/kg, time 14.0 hrs
[25] = tested on: RAW264.7; assay: Antiinflammatory activity in LPS-induced mouse RAW264.7 cells assessed as reduction in TNF-alpha release incubated for 24 hrs by ELISA method; assay type: functional, cell-based; conditions: dose 2.5-10 µM
[26] = tested on: Mus musculus; assay: Antiinflammatory activity in LPS-induced BALB/c sepsis mouse model assessed as decrease in serum AST level at 2.5 to 10 mg/kg, iv administered for 2 hrs and measured after 12 hrs; assay type: functional, organism-based; conditions: dose 2.5-10 mg/kg, time 14.0 hrs
[27] = tested on: Mus musculus; assay: Antiinflammatory activity in LPS-induced BALB/c sepsis mouse model assessed as decrease in serum BUN level at 2.5 to 10 mg/kg, iv administered for 2 hrs and measured after 12 hrs; assay type: functional, organism-based; conditions: dose 2.5-10 mg/kg, time 14.0 hrs
[28] = tested on: RAW264.7; assay: Antiinflammatory activity in LPS-induced mouse RAW264.7 cells assessed as reduction in IL-6 release incubated for 24 hrs by ELISA method; assay type: functional, cell-based; conditions: dose 2.5-10 µM
[29] = Toxicity in BALB/c mouse assessed as pathological damage in spleen at 10 mg/kg, po administered for 2 hrs by H and E staining based analysis; assay type: organism-based; conditions: in vivo
[30] = Toxicity in BALB/c mouse assessed as liver lesions at 2.5 to 10 mg/kg, iv administered for 2 hrs and measured after 12 hrs by H and E staining based assay; assay type: organism-based; conditions: in vivo, 14 h, dose 2.5-10 mg/kg
[31] = tested on: Mus musculus; assay: Antiinflammatory activity in LPS-induced BALB/c sepsis mouse model assessed as decrease in serum SCr level at 2.5 to 10 mg/kg, iv administered for 2 hrs and measured after 12 hrs; assay type: functional, organism-based; conditions: dose 2.5-10 mg/kg, time 14.0 hrs
[32] = tested on: Mus musculus; assay: Antiinflammatory activity in LPS-induced BALB/c sepsis mouse model assessed as decrease in serum ALT level at 2.5 to 10 mg/kg, iv administered for 2 hrs and measured after 12 hrs; assay type: functional, organism-based; conditions: dose 2.5-10 mg/kg, time 14.0 hrs
[33] = Toxicity in BALB/c mouse assessed as pathological damage in lung at 10 mg/kg, po administered for 2 hrs by H and E staining based analysis; assay type: organism-based; conditions: in vivo
[34] = Toxicity in BALB/c mouse assessed as change in body weight at 10 mg/kg, po administered for 3 days; assay type: organism-based; conditions: in vivo, 72 h, time 3 day
[35] = Toxicity in BALB/c mouse assessed as pathological damage in kidney at 10 mg/kg, po administered for 2 hrs by H and E staining based analysis; assay type: organism-based; conditions: in vivo
[36] = Toxicity in BALB/c mouse assessed as increase in survival rate at 10 mg/kg, po administered for 3 days; assay type: organism-based; conditions: in vivo, 72 h, time 3 day
[37] = (§1) Toxicity in BALB/c mouse assessed as histopathological lesions in liver at 10 mg/kg, po in presence of 4a-benzyl-12-ethyl-(6aS,6bR,9R,13aR)-9-(hydroxymethyl)-2,2,6a,6b,9,13a-hexamethyl-1,3,4,5,6,6a,6b,7,8,8a,9,13,13a,13b,14,15b-hexadecahydropiceno[2,3-d]isoxazole-4a,12(2H)-dicarboxylate by H and E staining based analysis; assay type: organism-based; conditions: in vivo
[38] = Toxicity in BALB/c mouse assessed as kidney lesions at 2.5 to 10 mg/kg, iv administered for 2 hrs and measured after 12 hrs by H and E staining based assay; assay type: organism-based; conditions: in vivo, 14 h, dose 2.5-10 mg/kg
[39] = Toxicity in BALB/c mouse assessed as animal survival at 750 mg/kg, po administered for 2 hrs; assay type: organism-based; conditions: in vivo
[40] = as §1, with “lung” for “liver”; assay type: organism-based; conditions: in vivo
[41] = Toxicity in BALB/c mouse assessed as pathological damage in liver at 10 mg/kg, po administered for 2 hrs by H and E staining based analysis; assay type: organism-based; conditions: in vivo
[42] = as §1, with “kidney” for “liver”; assay type: organism-based; conditions: in vivo

half-life [3]: 4.85 h | AUC(0-inf) [5]: 23400 ng·h/mL | Tmax [7]: 4 h | Cmax [11]: 3930 ng/mL | AUC(0-t) at 24 h [15]: 22700 ng·h/mL
SMILES: CCOC(=O)c1noc2c1C[C@@]1(C)[C@@H](CC[C@]3(C)[C@@H]1CC=C1[C@@H]4CC(C)(C)CC[C@]4(C(=O)OCc4ccccc4)CC[C@]13C)[C@]2(C)CO
Activity [1]: Non-toxic | Activity [2]: Non-toxic | Activity [4]: Non-toxic | inhibition at 20 µM [6]: 32.5% | Activity [8]: Non-toxic | Activity [9]: Non-toxic | inhibition at 20 µM [10]: 52.4% | Activity [12]: Non-toxic | Activity [13]: Non-toxic | Activity [14]: Non-toxic

SMILES: CCOC(=O)c1noc2c1C[C@@]1(C)[C@@H](CC[C@]3(C)[C@@H]1CC=C1[C@@H]4CC(C)(C)CC[C@]4(C(=O)OCc4ccccc4)CC[C@]13C)[C@]2(C)COC(=O)CCC(=O)N1CCOCC1
Activity [16]: Non-toxic | Activity [17]: Active | Activity [18]: Active | Activity [19]: Non-toxic | Activity [20]: Active | half-life [3]: 5.42 h | Activity [21]: Active | Activity [4]: Non-toxic | Activity [22]: Non-toxic | AUC(0-inf) [5]: 9970 ng·h/mL | Activity [23]: Non-toxic | Activity [24]: Active | Activity [25]: Dose-dependent-effect | inhibition at 20 µM [6]: 69.6% | Tmax [7]: 2.25 h | Activity [26]: Active | Activity [27]: Active | Activity [28]: Dose-dependent-effect | Activity [29]: Non-toxic | Activity [30]: Non-toxic | Activity [31]: Active | Activity [32]: Active | Activity [33]: Non-toxic | Activity [34]: Non-toxic | Activity [35]: Non-toxic | Activity [36]: Non-toxic | Activity [37]: Non-toxic | inhibition at 20 µM [10]: 80% | Cmax [11]: 2760 ng/mL | Activity [38]: Non-toxic | Activity [39]: Toxic | Activity [40]: Non-toxic | Activity [41]: Non-toxic | Activity [42]: Non-toxic | AUC(0-t) at 24 h [15]: 9620 ng·h/mL
